Measured values reported in ChEMBL document CHEMBL3046564, “Antifungal activity of beta-asarone from rhizomes of Acorus gramineus” (2004).
In brackets after ≈: the same amount, converted by molar mass. Activity calls are given as the source filed them. The rule behind the calls is not given here.

Key:
[1] = system: Colletotrichum orbiculare; experiment: Antifungal activity against Colletotrichum orbiculare infested cucumber plant grown under greenhouse condition assessed as reduction in lesion formation on second leaves at 10 to 500 ug/ml sprayed at two-leaf stage 1 day prior inoculation measured after 6 days post inoculation; format: functional, organism-based
[2] = system: Fusarium oxysporum f. sp. lycopersici; experiment: Antimicrobial activity against Fusarium oxysporum f. sp. lycopersici assessed as mycelial growth inhibition after 3 to 5 days; format: functional
Cladosporium cucumerinum = experiment: Antimicrobial activity against Cladosporium cucumerinum assessed as mycelial growth inhibition after 3 to 5 days; format: functional
Botrytis cinerea = experiment: Antimicrobial activity against Botryotinia fuckeliana assessed as mycelial growth inhibition after 3 to 5 days; format: functional
Alternaria mali = experiment: Antimicrobial activity against Alternaria mali assessed as mycelial growth inhibition at 100 ug/ml after 3 to 5 days; format: functional, organism-based
[3] = system: Colletotrichum orbiculare; experiment: Antifungal activity against Colletotrichum orbiculare infested cucumber plant grown under greenhouse condition assessed as reduction in lesion formation on second leaves at 500 ug/ml sprayed at two-leaf stage 1 day prior inoculation measured after 6 days post inoculation; format: functional, organism-based
Bacillus subtilis = experiment: Antimicrobial activity against Bacillus subtilis assessed as mycelial growth inhibition after 3 to 5 days; format: functional
Candida albicans = experiment: Antimicrobial activity against Candida albicans assessed as mycelial growth inhibition after 3 to 5 days; format: functional
Ilyonectria destructans = experiment: Antimicrobial activity against Ilyonectria radicicola assessed as mycelial growth inhibition after 3 to 5 days; format: functional
Saccharomyces cerevisiae = experiment: Antimicrobial activity against Saccharomyces cerevisiae assessed as mycelial growth inhibition after 3 to 5 days; format: functional
Xanthomonas campestris = experiment: Antimicrobial activity against Xanthomonas euvesicatoria assessed as mycelial growth inhibition after 3 to 5 days; format: functional
Pyricularia grisea = experiment: Antimicrobial activity against Magnaporthe grisea assessed as mycelial growth inhibition after 3 to 5 days; format: functional
[4] = system: Colletotrichum orbiculare; experiment: Antimicrobial activity against Colletotrichum orbiculare assessed as mycelial growth inhibition after 3 to 5 days; format: functional
[5] = system: Colletotrichum orbiculare; experiment: Antifungal activity against Colletotrichum orbiculare infested cucumber plant grown under greenhouse condition assessed as supression of anthracnose development at 500 ug/ml sprayed at two-leaf stage 1 day prior inoculation measured after 6 days post inoculation; format: functional, organism-based
Phytophthora capsici = experiment: Antimicrobial activity against Phytophthora capsici assessed as mycelial growth inhibition after 3 to 5 days; format: functional
Ralstonia solanacearum = experiment: Antimicrobial activity against Ralstonia solanacearum assessed as mycelial growth inhibition after 3 to 5 days; format: functional
Globisporangium ultimum = experiment: Antimicrobial activity against Pythium ultimum assessed as mycelial growth inhibition after 3 to 5 days; format: functional
Sclerotinia sclerotiorum = experiment: Antimicrobial activity against Sclerotinia sclerotiorum assessed as mycelial growth inhibition after 3 to 5 days; format: functional
Rhizoctonia solani = experiment: Antimicrobial activity against Rhizoctonia solani assessed as mycelial growth inhibition after 3 to 5 days; format: functional
[6] = system: Pectobacterium carotovorum subsp. carotovorum; experiment: Antimicrobial activity against Pectobacterium carotovorum subsp. carotovorum assessed as mycelial growth inhibition after 3 to 5 days; format: functional

N#Cc1c(Cl)c(Cl)c(Cl)c(C#N)c1Cl
Activity [1]: Active

C/C=C\c1cc(OC)c(OC)cc1OC [CIS-ASARONE]
MIC [2]: > 100 µg/mL | MIC (Cladosporium cucumerinum): 30 µg/mL (≈ 144 µM) | MIC (Botrytis cinerea): > 100 µg/mL | growth inhibition (GI) (Alternaria mali): inactive | Activity [3]: Active | MIC (Bacillus subtilis): 50 µg/mL (≈ 240 µM) | MIC (Candida albicans): > 100 µg/mL | MIC (Ilyonectria destructans): > 100 µg/mL | MIC (Saccharomyces cerevisiae): > 100 µg/mL | MIC (Xanthomonas campestris): 50 µg/mL (≈ 240 µM) | MIC (Pyricularia grisea): 30 µg/mL (≈ 144 µM) | MIC [4]: 30 µg/mL (≈ 144 µM) | Activity [5]: Active | MIC (Phytophthora capsici): > 100 µg/mL | MIC (Ralstonia solanacearum): 50 µg/mL (≈ 240 µM) | MIC (Globisporangium ultimum): 0.5 µg/mL (≈ 2.4 µM) | MIC (Sclerotinia sclerotiorum): > 100 µg/mL | MIC (Rhizoctonia solani): > 100 µg/mL | MIC [6]: 50 µg/mL (≈ 240 µM)
